In US6492375B2, “Partially saturated calcium channel blockers” (NeuroMed Technologies, Inc., priority 1998, dated 2002) one finds IC50 data, which are given here for nine compounds.

Several values for one entry are separate records, joined by “and”; a condition that tells them apart may be missing. Identical values can stand only once.

T1 sequence (Q02294 whole entry): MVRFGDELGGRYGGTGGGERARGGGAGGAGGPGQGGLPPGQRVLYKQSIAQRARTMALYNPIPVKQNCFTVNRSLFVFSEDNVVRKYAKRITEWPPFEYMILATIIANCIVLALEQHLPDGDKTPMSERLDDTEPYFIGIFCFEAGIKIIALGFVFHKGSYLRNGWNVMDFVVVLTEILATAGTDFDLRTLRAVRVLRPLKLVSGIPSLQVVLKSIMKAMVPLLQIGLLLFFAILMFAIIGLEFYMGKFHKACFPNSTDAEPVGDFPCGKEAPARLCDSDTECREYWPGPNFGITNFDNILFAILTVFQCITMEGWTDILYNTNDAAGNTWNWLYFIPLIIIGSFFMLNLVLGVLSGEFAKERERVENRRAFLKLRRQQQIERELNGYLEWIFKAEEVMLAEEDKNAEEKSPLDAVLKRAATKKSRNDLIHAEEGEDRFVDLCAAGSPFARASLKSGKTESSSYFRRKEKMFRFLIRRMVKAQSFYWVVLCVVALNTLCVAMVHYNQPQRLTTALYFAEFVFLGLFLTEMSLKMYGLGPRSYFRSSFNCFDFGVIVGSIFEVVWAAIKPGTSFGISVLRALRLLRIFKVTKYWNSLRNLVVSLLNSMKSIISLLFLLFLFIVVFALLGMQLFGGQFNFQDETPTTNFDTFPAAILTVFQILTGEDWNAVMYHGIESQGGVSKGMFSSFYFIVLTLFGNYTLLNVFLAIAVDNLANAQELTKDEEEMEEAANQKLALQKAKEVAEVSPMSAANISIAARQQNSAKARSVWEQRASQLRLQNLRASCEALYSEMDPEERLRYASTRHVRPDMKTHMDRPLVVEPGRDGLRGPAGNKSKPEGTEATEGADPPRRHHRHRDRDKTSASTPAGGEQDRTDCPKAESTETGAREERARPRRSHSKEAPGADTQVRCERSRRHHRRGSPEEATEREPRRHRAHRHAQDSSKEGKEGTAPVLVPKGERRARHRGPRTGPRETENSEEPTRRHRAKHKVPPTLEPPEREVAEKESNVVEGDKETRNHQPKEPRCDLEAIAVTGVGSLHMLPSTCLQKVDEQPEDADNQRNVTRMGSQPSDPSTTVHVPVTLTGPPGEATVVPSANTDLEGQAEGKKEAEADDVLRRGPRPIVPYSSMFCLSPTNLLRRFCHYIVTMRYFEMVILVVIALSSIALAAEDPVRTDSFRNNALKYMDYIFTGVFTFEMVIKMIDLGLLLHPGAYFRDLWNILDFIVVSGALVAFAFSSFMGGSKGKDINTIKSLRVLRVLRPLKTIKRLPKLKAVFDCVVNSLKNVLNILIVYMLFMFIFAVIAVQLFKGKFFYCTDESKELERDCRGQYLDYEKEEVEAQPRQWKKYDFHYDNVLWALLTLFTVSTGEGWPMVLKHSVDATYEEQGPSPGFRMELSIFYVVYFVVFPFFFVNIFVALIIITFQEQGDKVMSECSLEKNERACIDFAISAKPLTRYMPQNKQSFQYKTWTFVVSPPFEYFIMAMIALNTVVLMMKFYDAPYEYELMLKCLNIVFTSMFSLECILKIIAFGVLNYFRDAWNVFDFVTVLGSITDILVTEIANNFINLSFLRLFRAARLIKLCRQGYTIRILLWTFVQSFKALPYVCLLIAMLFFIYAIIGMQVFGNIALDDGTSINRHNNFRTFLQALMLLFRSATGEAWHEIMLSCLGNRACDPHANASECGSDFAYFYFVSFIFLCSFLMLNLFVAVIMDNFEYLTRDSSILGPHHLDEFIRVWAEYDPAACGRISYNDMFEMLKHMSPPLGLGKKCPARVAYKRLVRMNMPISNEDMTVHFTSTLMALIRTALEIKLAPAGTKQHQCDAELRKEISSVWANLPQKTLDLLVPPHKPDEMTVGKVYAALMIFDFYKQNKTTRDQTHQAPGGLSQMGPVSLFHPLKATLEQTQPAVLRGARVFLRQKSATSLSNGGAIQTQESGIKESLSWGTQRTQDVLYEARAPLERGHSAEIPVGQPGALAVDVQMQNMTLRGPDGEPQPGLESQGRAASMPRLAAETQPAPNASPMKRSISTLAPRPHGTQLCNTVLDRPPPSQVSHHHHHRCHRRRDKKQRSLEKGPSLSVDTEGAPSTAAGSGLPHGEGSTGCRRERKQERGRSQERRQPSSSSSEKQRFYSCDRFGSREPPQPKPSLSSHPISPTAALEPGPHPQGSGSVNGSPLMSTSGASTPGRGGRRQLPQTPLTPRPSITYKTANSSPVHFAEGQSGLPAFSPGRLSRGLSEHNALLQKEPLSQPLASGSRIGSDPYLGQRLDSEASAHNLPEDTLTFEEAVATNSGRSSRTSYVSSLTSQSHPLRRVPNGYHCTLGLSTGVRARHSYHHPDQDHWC
T1 sequence (P54290 25-944 partner limits assumed): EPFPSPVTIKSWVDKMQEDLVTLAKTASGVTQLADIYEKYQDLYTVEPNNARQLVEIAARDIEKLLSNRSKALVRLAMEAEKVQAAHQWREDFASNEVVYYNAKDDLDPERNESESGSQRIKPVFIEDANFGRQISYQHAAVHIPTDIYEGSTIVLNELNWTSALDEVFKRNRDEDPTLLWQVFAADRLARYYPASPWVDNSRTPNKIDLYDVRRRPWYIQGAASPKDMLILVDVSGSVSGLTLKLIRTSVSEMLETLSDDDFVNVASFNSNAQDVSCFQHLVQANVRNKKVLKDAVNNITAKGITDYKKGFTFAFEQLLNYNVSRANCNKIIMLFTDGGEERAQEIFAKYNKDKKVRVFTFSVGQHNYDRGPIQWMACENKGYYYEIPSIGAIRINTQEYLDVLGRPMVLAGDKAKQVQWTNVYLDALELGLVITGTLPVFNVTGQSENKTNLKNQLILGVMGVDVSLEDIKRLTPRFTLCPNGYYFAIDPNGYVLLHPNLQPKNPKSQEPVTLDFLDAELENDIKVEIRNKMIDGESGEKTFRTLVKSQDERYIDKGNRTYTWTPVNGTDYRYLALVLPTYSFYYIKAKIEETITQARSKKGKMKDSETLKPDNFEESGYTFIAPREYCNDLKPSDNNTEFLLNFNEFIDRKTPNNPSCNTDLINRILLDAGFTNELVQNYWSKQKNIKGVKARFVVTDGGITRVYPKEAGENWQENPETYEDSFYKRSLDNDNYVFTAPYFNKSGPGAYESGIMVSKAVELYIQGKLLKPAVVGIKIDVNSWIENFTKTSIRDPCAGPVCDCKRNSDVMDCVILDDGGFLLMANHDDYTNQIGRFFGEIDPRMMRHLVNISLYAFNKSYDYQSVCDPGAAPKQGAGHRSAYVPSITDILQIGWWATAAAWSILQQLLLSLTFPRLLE
T1 sequence (P54290 945-1091 partner limits assumed): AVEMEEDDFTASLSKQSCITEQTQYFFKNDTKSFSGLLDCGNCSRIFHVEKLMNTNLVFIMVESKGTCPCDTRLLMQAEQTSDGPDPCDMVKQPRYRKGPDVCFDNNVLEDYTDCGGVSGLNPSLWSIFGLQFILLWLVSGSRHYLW
T1 sequence (P54283 whole entry partner): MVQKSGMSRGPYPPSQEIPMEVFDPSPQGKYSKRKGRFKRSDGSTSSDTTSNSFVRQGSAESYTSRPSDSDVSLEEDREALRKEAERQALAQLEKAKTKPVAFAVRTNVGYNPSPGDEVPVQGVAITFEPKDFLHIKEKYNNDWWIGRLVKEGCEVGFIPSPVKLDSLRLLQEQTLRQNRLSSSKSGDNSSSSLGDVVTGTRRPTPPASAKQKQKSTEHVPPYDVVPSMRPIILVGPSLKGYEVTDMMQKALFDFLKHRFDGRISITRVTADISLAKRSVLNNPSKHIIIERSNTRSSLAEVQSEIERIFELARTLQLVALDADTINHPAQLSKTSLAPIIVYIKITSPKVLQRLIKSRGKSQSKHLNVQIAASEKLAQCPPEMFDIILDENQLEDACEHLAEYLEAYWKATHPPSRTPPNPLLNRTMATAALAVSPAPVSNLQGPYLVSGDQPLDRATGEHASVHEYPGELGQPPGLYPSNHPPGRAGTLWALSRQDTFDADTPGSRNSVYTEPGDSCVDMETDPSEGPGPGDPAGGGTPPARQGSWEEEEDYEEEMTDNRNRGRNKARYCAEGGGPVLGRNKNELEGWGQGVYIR

The test concerns the target T1, rat α1B+α2b+β1b channels (Rattus norvegicus, UniProt Q02294).
T1 construct: expressed in transfected cells
Briefly: N-type calcium channel blocking activity, whole cell patch recordings. In kind it is cell-based. The conditions noted are these: N-type calcium channels expressed in human embryonic kidney cells; 5 mM barium as charge carrier. Here is the method:
Antagonist activity was measured using whole cell patch recordings on human embryonic kidney cells either stably or transiently expressing rat α1B+α2b+β1b channels with 5 mM barium as a charge carrier.
For transient expression, host cells, such as human embryonic kidney cells, HEK 293 (ATCC# CRL 1573) are grown in standard DMEM medium supplemented with 2 mM glutamine and 10% fetal bovine serum. HEK 293 cells are transfected by a standard calcium-phosphate-DNA coprecipitation method using the rat α1B+β1b+α2δ N-type calcium channel subunits in a vertebrate expression vector (for example, see Current Protocols in Molecular Biology).
After an incubation period of from 24 to 72 hrs the culture medium is removed and replaced with external recording solution (see below). Whole cell patch clamp experiments are performed using an Axopatch 200B amplifier (Axon Instruments, Burlingame, Calif.) linked to an IBM compatible personal computer equipped with pCLAMP software. Borosilicate glass patch pipettes (Sutter Instrument Co., Novato, Calif.) were polished (Microforge, Narishige, Japan) to a resistance of about 4 MΩ when filled with cesium methanesulfonate internal solution (composition in MM: 109 CsCH3SO4, 4 MgCl2, 9 EGTA, 9 HEPES, pH 7.2). Cells were bathed in 5 mM Ba^++ (in mM: 5 BaCl2, 1 MgCl2, 10 HEPES, 40 tetraethylammonium chloride, 10 glucose, 87.5 CsCl pH 7.2). Current data shown were elicited by a train of 100 ms test pulses at 0.066 Hz from −100 mV and/or −80 mV to various potentials (min. −20 mV, max. +30 mV). Drugs were perfused directly into the vicinity of the cells using a microperfusion system.
Normalized dose-response curves were fit (Sigmaplot 4.0, SPSS Inc., Chicago, Ill.) by the Hill equation to determine IC50 values. Steady-state inactivation curves were plotted as the normalized test pulse amplitude following 5 s inactivating prepulses at +10 mV increments. Inactivation curves were fit (Sigmaplot 4.0) with the Boltzman equation, Ipeak (normalized)=1/(1+exp((V-Vh)z/25.6)), where V and Vh are the conditioning and half inactivation potentials, respectively, and z is the slope factor. […]
One may read the IC50 as the concentration needed to halve the response being measured. Consider `C(=Cc1ccccc1)CN1CCN(CC(C2CCCCC2)C2CCCCC2)CC1`, for which the IC50 came out at 10.2 µM. To `O=C(C(C1CCCCC1)C1CCCCC1)N1CCN(CC=Cc2ccccc2)CC1` belongs 5.9 µM; to `C(=Cc1ccccc1)CN1CCN(CC(c2ccccc2)C2CCCCC2)CC1` (stereo not drawn), 10.6 µM and ~5 µM. To `O=C(C(c1ccccc1)C1CCCCC1)N1CCN(CC=Cc2ccccc2)CC1` (stereo not drawn) belongs about 5 µM; to `O=C(CCCCCC(c1ccccc1)C1CCCCC1)N1CCN(CC=Cc2ccccc2)CC1` (stereo not drawn), 12.2 µM; to `C(=Cc1ccccc1)CN1CCN(CCCCCC(c2ccccc2)C2CCCCC2)CC1` (stereo not drawn), 5.9 µM.

Regarding `C(=Cc1ccccc1)CN1CCN(CCCCCCC(c2ccccc2)C2CCCCC2)CC1` (stereo not drawn), the half-inhibitory concentration (IC50) stood at 3.2 µM.

In the case of `O=C(C(C1CCCCC1)C1CCCCC1)N1CCN(Cc2ccccc2)CC1` [Ya=c-hex, c-hex; X^1=CHCO; X^2=CH2; Ar=φ], the IC50 is 14.2 µM. To `O=C(C(c1ccccc1)C1CCCCC1)N1CCN(Cc2ccccc2)CC1` (stereo not drawn) [Ya=φ, c-hex; X^1=CHCO; X^2=CH2; Ar=φ] belongs about 20 µM.
